According to patent US20210238551A1, “Method for Generating Regulatory T Cells” (Osaka University, priority 2018, published 2021):

How the values were obtained:
mouse naïve T cells = assay: Bisulfite sequencing of regulatory T cell-specific demethylation in regulatory T cells induced from mouse naïve T cells; assay type: cell-based; details: 10 μg/ml or 30 μg/ml ascorbic acid in basal medium, Example 1 culture system, FIG. 3
Description: (§1) Genomic DNA was obtained from induced cells, treated with MethylEasy Xceed Rapid DNA Bisulphite Modification Kit (Human Genetic Signatures), and then examined for demethylations in genes specific to regulatory T cells. The demethylations in each gene were analyzed by using known methods and primers (Floess et al. (2007) PloS Biology Volume 5, Issue 2, e38, and Ohkura et al. (2012) Immunity 37(5) 785-799).
(§2) For the analysis in mouse Foxp3 CNS2 region, 5′-[…]-3′ (SEQ ID NO: 1) was used as the primer on the forward side, and 5′-[…]-3′ (SEQ ID NO: 2) was used as the primer on the reverse side. For the analysis in human Foxp3 CNS2 region, 5′-[…]-3′ (SEQ ID NO: 3) was used as the primer on the forward side, and 5′-[…]-3′ (SEQ ID NO: 4) was used as the primer on the reverse side.
Mouse naïve T cells were obtained from lymph nodes of eFox reporter mice by FACS. […] We analyzed regulatory T cell-specific demethylation sites and commonly methylation sites in Foxp3, CTLA4, Eos, and Helios. […]

[1] = system: human CD4+ CD25- CD45RA+ T cells; assay: Bisulfite sequencing of demethylation in Foxp3 CNS2 region in regulatory T cells induced from human T cells; assay type: cell-based; details: combined with ascorbic acid, FIG. 13
Description: as §1, §2
Human CD4^+ CD25^− CD45RA^+ T cells (human T cells) were stimulated in the basal medium comprising anti-CD3 antibody, anti-CD28 antibody, and IL-2 for 3 days. The cells were then cultured for pretreatment in the basal medium supplemented with only IL-2 for 4 days. […]

human T cells = details: existing methods, Non-patent literature 3; cited from earlier work

O=C1O[C@H]([C@@H](O)CO)C(O)=C1O [ascorbic acid]
degree of demethylations at regulatory T cell-specific sites on adding ascorbic acid (mouse naïve T cells): degree of the demethylations was further increased | demethylation effect in human T cell-derived regulatory T cells [1]: demethylation effect of ascorbic acid was also observed | induction of regulatory T cell-specific demethylations in human T cells (human T cells): cannot induce regulatory T cell-specific demethylations in human T cells
